Measurements from PubChem BioAssay AID1259407 (Chemical Carcinogenesis Research Information System (CCRIS), 2018).
The source made the active and inactive calls. How the calls were made is not given here.

Tested on: CCRIS mutagenicity, Ames/micronucleus/aberration tests
Test: CCRIS mutagenicity studies
[1] = Test System: AMES SALMONELLA TYPHIMURIUM, Strain/Indicator: TA98, Metabolic Activation: HAMSTER, LIVER, S-9, AROCLOR 1254 (10%), Method: PREINCUBATION
[2] = Test System: AMES SALMONELLA TYPHIMURIUM, Strain/Indicator: TA98, Metabolic Activation: NONE, Method: PREINCUBATION
[3] = Test System: AMES SALMONELLA TYPHIMURIUM, Strain/Indicator: TA98, Metabolic Activation: RAT, LIVER, S-9, AROCLOR 1254 (10%), Method: PREINCUBATION
[4] = Test System: AMES SALMONELLA TYPHIMURIUM, Strain/Indicator: TA100, Metabolic Activation: HAMSTER, LIVER, S-9, AROCLOR 1254 (10%), Method: PREINCUBATION
[5] = Test System: AMES SALMONELLA TYPHIMURIUM, Strain/Indicator: TA100, Metabolic Activation: NONE, Method: PREINCUBATION
[6] = Test System: AMES SALMONELLA TYPHIMURIUM, Strain/Indicator: TA100, Metabolic Activation: RAT, LIVER, S-9, AROCLOR 1254 (10%), Method: PREINCUBATION
[7] = Test System: AMES SALMONELLA TYPHIMURIUM, Strain/Indicator: TA1535, Metabolic Activation: HAMSTER, LIVER, S-9, AROCLOR 1254 (10%), Method: PREINCUBATION
[8] = Test System: AMES SALMONELLA TYPHIMURIUM, Strain/Indicator: TA1535, Metabolic Activation: NONE, Method: PREINCUBATION
[9] = Test System: AMES SALMONELLA TYPHIMURIUM, Strain/Indicator: TA1535, Metabolic Activation: RAT, LIVER, S-9, AROCLOR 1254 (10%), Method: PREINCUBATION
[10] = Test System: AMES SALMONELLA TYPHIMURIUM, Strain/Indicator: TA1537, Metabolic Activation: HAMSTER, LIVER, S-9, AROCLOR 1254 (10%), Method: PREINCUBATION
[11] = Test System: AMES SALMONELLA TYPHIMURIUM, Strain/Indicator: TA1537, Metabolic Activation: NONE, Method: PREINCUBATION
[12] = Test System: AMES SALMONELLA TYPHIMURIUM, Strain/Indicator: TA1537, Metabolic Activation: RAT, LIVER, S-9, AROCLOR 1254 (10%), Method: PREINCUBATION
[13] = Test System: AMES SALMONELLA TYPHIMURIUM, Strain/Indicator: TA100, Metabolic Activation: NONE, Method: STANDARD PLATE

SMILES: c1ccc(OP(Oc2ccccc2)Oc2ccccc2)cc1
- mutagenic call [1]: inactive; negative
- mutagenic call [2]: inactive; negative
- mutagenic call [3]: inactive; negative
- mutagenic call [4]: inactive; negative
- mutagenic call [5]: inactive; negative
- mutagenic call [6]: inactive; negative
- mutagenic call [7]: inactive; negative
- mutagenic call [8]: inactive; negative
- mutagenic call [9]: inactive; negative
- mutagenic call [10]: inactive; negative
- mutagenic call [11]: inactive; negative
- mutagenic call [12]: inactive; negative

SMILES: C=C(C)[C@H]1CC=C(C)C(=O)C1
- mutagenic call (Test System: AMES SALMONELLA TYPHIMURIUM, Strain/Indicator: TA98, Metabolic Activation: HAMSTER, LIVER, S-9, AROCLOR 1254, Method: PREINCUBATION): inactive; negative
- mutagenic call [2]: inactive; negative
- mutagenic call (Test System: AMES SALMONELLA TYPHIMURIUM, Strain/Indicator: TA98, Metabolic Activation: RAT, LIVER, S-9, AROCLOR 1254, Method: PREINCUBATION): inactive; negative
- mutagenic call (Test System: AMES SALMONELLA TYPHIMURIUM, Strain/Indicator: TA100, Metabolic Activation: HAMSTER, LIVER, S-9, AROCLOR 1254, Method: PREINCUBATION): inactive; negative
- mutagenic call [5]: inactive; negative
- mutagenic call (Test System: AMES SALMONELLA TYPHIMURIUM, Strain/Indicator: TA100, Metabolic Activation: RAT, LIVER, S-9, AROCLOR 1254, Method: PREINCUBATION): inactive; negative
- mutagenic call (Test System: AMES SALMONELLA TYPHIMURIUM, Strain/Indicator: TA1535, Metabolic Activation: HAMSTER, LIVER, S-9, AROCLOR 1254, Method: PREINCUBATION): inactive; negative
- mutagenic call [8]: inactive; negative
- mutagenic call (Test System: AMES SALMONELLA TYPHIMURIUM, Strain/Indicator: TA1535, Metabolic Activation: RAT, LIVER, S-9, AROCLOR 1254, Method: PREINCUBATION): inactive; negative
- mutagenic call (Test System: AMES SALMONELLA TYPHIMURIUM, Strain/Indicator: TA1537, Metabolic Activation: HAMSTER, LIVER, S-9, AROCLOR 1254, Method: PREINCUBATION): inactive; negative
- mutagenic call [11]: inactive; negative
- mutagenic call (Test System: AMES SALMONELLA TYPHIMURIUM, Strain/Indicator: TA1537, Metabolic Activation: RAT, LIVER, S-9, AROCLOR 1254, Method: PREINCUBATION): inactive; negative

SMILES: CC(=O)c1cc(NC(=O)Nc2ccc(OCC(O)CNC(C)(C)C)c(C(C)=O)c2)ccc1OCC(O)CNC(C)(C)C (stereo not given)
- mutagenic call [2]: inactive; negative
- mutagenic call (Test System: AMES SALMONELLA TYPHIMURIUM, Strain/Indicator: TA98, Metabolic Activation: RAT, LIVER, S-9, PHENOBARBITAL AND 5,6-BENZOFLAVONE (10 OR 50 µL/PLATE), Method: PREINCUBATION): inactive; negative
- mutagenic call [5]: inactive; negative
- mutagenic call (Test System: AMES SALMONELLA TYPHIMURIUM, Strain/Indicator: TA100, Metabolic Activation: RAT, LIVER, S-9, PHENOBARBITAL AND 5,6-BENZOFLAVONE (10 OR 50 µL/PLATE), Method: PREINCUBATION): inactive; negative
- mutagenic call [8]: inactive; negative
- mutagenic call [11]: inactive; negative
- mutagenic call (Test System: AMES SALMONELLA TYPHIMURIUM, Strain/Indicator: TA1537, Metabolic Activation: RAT, LIVER, S-9, PHENOBARBITAL AND 5,6-BENZOFLAVONE (10 OR 50 µL/PLATE), Method: PREINCUBATION): inactive; negative
- mutagenic call (Test System: E. COLI, Strain/Indicator: WP2 UVRA, Metabolic Activation: NONE, Method: PREINCUBATION): inactive; negative
- mutagenic call (Test System: E. COLI, Strain/Indicator: WP2 UVRA, Metabolic Activation: RAT, LIVER, S-9, PHENOBARBITAL AND 5,6-BENZOFLAVONE (10 OR 50 µL/PLATE), Method: PREINCUBATION): inactive; negative

SMILES: CC(C)=C/C(C)=N/Nc1nncc2ccccc12
- mutagenic call [13]: active; positive
- mutagenic call (Test System: AMES SALMONELLA TYPHIMURIUM, Strain/Indicator: TA100, Metabolic Activation: RAT, LIVER, S-9, PHENOBARBITAL, Method: STANDARD PLATE): active; positive
- mutagenic call (Test System: UDS RAT HEPATOCYTES, Strain/Indicator: THY INCORP, Metabolic Activation: NONE, Method: AUTORADIOGRAPHY): inactive; negative

SMILES: O=c1[nH]c2ccccc2o1
- mutagenic call (Test System: AMES SALMONELLA TYPHIMURIUM, Strain/Indicator: TA98, Metabolic Activation: HAMSTER, LIVER, S-9, AROCLOR 1254, Method: STANDARD PLATE): inactive; negative
- mutagenic call (Test System: AMES SALMONELLA TYPHIMURIUM, Strain/Indicator: TA98, Metabolic Activation: NONE, Method: STANDARD PLATE): inactive; negative
- mutagenic call (Test System: AMES SALMONELLA TYPHIMURIUM, Strain/Indicator: TA98, Metabolic Activation: RAT, LIVER, S-9, AROCLOR 1254, Method: STANDARD PLATE): inactive; negative
- mutagenic call (Test System: AMES SALMONELLA TYPHIMURIUM, Strain/Indicator: TA100, Metabolic Activation: HAMSTER, LIVER, S-9, AROCLOR 1254, Method: STANDARD PLATE): inactive; negative
- mutagenic call [13]: inactive; negative
- mutagenic call (Test System: AMES SALMONELLA TYPHIMURIUM, Strain/Indicator: TA100, Metabolic Activation: RAT, LIVER, S-9, AROCLOR 1254, Method: STANDARD PLATE): inactive; negative
- mutagenic call (Test System: AMES SALMONELLA TYPHIMURIUM, Strain/Indicator: TA1535, Metabolic Activation: HAMSTER, LIVER, S-9, AROCLOR 1254, Method: STANDARD PLATE): inactive; negative
- mutagenic call (Test System: AMES SALMONELLA TYPHIMURIUM, Strain/Indicator: TA1535, Metabolic Activation: NONE, Method: STANDARD PLATE): inactive; negative
- mutagenic call (Test System: AMES SALMONELLA TYPHIMURIUM, Strain/Indicator: TA1535, Metabolic Activation: RAT, LIVER, S-9, AROCLOR 1254, Method: STANDARD PLATE): inactive; negative
- mutagenic call (Test System: AMES SALMONELLA TYPHIMURIUM, Strain/Indicator: TA1537, Metabolic Activation: HAMSTER, LIVER, S-9, AROCLOR 1254, Method: STANDARD PLATE): inactive; negative
- mutagenic call (Test System: AMES SALMONELLA TYPHIMURIUM, Strain/Indicator: TA1537, Metabolic Activation: NONE, Method: STANDARD PLATE): inactive; negative
- mutagenic call (Test System: AMES SALMONELLA TYPHIMURIUM, Strain/Indicator: TA1537, Metabolic Activation: RAT, LIVER, S-9, AROCLOR 1254, Method: STANDARD PLATE): inactive; negative
- mutagenic call (Test System: AMES SALMONELLA TYPHIMURIUM, Strain/Indicator: TA1538, Metabolic Activation: HAMSTER, LIVER, S-9, AROCLOR 1254, Method: STANDARD PLATE): inactive; negative
- mutagenic call (Test System: AMES SALMONELLA TYPHIMURIUM, Strain/Indicator: TA1538, Metabolic Activation: NONE, Method: STANDARD PLATE): inactive; negative
- mutagenic call (Test System: AMES SALMONELLA TYPHIMURIUM, Strain/Indicator: TA1538, Metabolic Activation: RAT, LIVER, S-9, AROCLOR 1254, Method: STANDARD PLATE): inactive; negative
- mutagenic call (Test System: MOUSE LYMPHOMA, Strain/Indicator: L5178Y (TK+/TK-), Metabolic Activation: NONE, Method: SUSPENSION/PLATE): active; positive. reevaluation of results: equivocal
- mutagenic call (Test System: MOUSE LYMPHOMA, Strain/Indicator: L5178Y (TK+/TK-), Metabolic Activation: RAT, LIVER, S-9, AROCLOR 1254, Method: SUSPENSION/PLATE): inactive; negative. reevaluation of results: negative

SMILES: CCCCC(CC)COP(OCC(CC)CCCC)OCC(CC)CCCC (stereo not given)
- mutagenic call [1]: inactive; negative
- mutagenic call [2]: inactive; negative
- mutagenic call [3]: inactive; negative
- mutagenic call [4]: inactive; negative
- mutagenic call [5]: inactive; negative
- mutagenic call [6]: inactive; negative
- mutagenic call [7]: inactive; negative
- mutagenic call [8]: inactive; negative
- mutagenic call [9]: inactive; negative
- mutagenic call [10]: inactive; negative
- mutagenic call [11]: inactive; negative
- mutagenic call [12]: inactive; negative
